{"source": "patent US12297502B2", "about": "“Methods and compositions for detecting and diagnosing diseases and conditions” (Stealth BioTherapeutics Inc., priority 2013, dated 2025)", "key": {"[1]": {"tested_on": "plasma membrane of several mammalian cell types", "details": "energy-independent manner; Zhao et al., J. Pharmacol Exp Ther., 304:425-432, 2003; cited from earlier work"}, "mu-opioid receptor": {"target": "mu-opioid receptor (Homo sapiens, UniProt P35372)", "sequence (P35372 whole entry, species assumed)": "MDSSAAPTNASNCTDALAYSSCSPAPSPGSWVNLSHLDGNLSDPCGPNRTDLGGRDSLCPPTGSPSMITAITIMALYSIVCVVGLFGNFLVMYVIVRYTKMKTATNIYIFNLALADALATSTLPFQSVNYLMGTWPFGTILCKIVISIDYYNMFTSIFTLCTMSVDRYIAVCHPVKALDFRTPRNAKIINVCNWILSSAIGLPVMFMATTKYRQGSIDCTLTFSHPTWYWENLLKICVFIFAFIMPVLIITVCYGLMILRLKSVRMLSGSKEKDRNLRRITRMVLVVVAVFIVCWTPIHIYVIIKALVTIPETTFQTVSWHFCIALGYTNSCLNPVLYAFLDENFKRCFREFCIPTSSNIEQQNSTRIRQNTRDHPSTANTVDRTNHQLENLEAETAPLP", "assay": "mu-opioid receptor agonist activity", "details": "stated in the description, no test described"}, "[2]": {"tested_on": "dogs with coronary microembolization-induced heart failure", "assay": "LV function and mitochondrial ATP synthesis, dog model of heart failure", "assay_type": "in vivo", "details": "HF dogs, chronic treatment"}, "TAZ1 mRNA": {"tested_on": "TAZ1 mRNA", "assay": "TAZ1 mRNA in LV tissue by real-time PCR, dog model of heart failure", "assay_type": "in vivo", "details": "HF dogs, 0.5 mg/kg subcutaneous once daily, three months, normalized to GAPDH, printed as e.g. about ... or more", "source_text": "In this Example, the effect of the aromatic-cationic peptide D-Arg-2′6′-Dmt-Lys-Phe-NH2 on cardiolipin remodeling enzymes, MLCL AT1, ALCAT1, and TAZ1 in dogs with coronary microembolization-induced heart failure will be investigated.\nHeart failure will be induced in dogs via multiple sequential intracoronary microembolizations as described in Sabbah, et al., Am J Physiol. (1991) 260:H1379-84, herein incorporated by reference in its entirety.\nTwelve dogs will be subject to coronary microembolization-induced heart failure (LV ejection fraction ˜30%). Subjects will be randomized into D-Arg-2′6′-Dmt-Lys-Phe-NH2-treated and control groups for a three-month trial. Subjects will receive subcutaneous injections of D-Arg-2′6′-Dmt-Lys-Phe-NH2 (0.5 mg/kg once daily, n=6) or saline (Untreated-HF Control, n=6). RNA will be prepared from LV tissue of all subjects at the end of the treatment phase and from the LV of six normal subject controls. Levels of TAZ1 mRNA will be determined by real-time PCR. Changes in mRNA levels will be expressed as fold reduction using the CT Method, with normalization to a […] (GAPDH) internal control."}, "[3]": {"tested_on": "heart mitochondrial cardiolipin", "assay": "18:2 cardiolipin in left ventricle heart muscle, dog model of heart failure (shotgun lipidomics)", "assay_type": "in vivo", "details": "HF dogs, 0.5 mg/kg/day intravenously, 12 weeks, versus normal dogs (NL) and untreated HF dogs (HF-CON)", "source_text": "In this Example, the effect of aromatic-cationic peptide such as D-Arg-2′6′-Dmt-Lys-Phe-NH2 on heart mitochondrial cardiolipin levels in dogs with coronary microembolization-induced heart failure will be investigated.\nHeart failure will be induced in dogs via multiple sequential intracoronary microembolizations as described in Sabbah, et al., Am J Physiol. (1991) 260:H1379-84, herein incorporated by reference in its entirety. Half the dogs will be subsequently treated with the mitochondrial peptide; the other half will be treated with drug vehicle and serve as controls. Peptide treatment will be started upon induction of heart failure (HF), defined as left ventricular ejection fraction of approximately 30%. The daily dose of the peptide will be 0.5 mg/kg/day administered intravenously. At the end of the treatment phase (12 weeks) dogs in both the vehicle and treatment groups will be sacrificed and a sample of heart muscle from the left ventricle will be removed, washed with saline, and immediately frozen and stored at −80° C. For cardiolipin analysis, lipids will be extracted from the heart tissue sample with a chloroform/methanol solution (Bligh Dyer extraction). […]"}, "[4]": {"details": "cited from earlier work"}}}
{"substance": "2′,6′-Dmt-D-Arg-Phe-Lys-NH2", "values": [{"measurement": "penetration of cell membranes", "setting": "[1]", "result": "readily penetrates"}]}
{"substance": "D-Arg-2′6′-Dmt-Lys-Phe-NH2", "values": [{"measurement": "mu-opioid receptor agonist activity", "setting": "mu-opioid receptor", "result": "does not have mu-opioid receptor agonist activity"}, {"measurement": "LV function", "setting": "[2]", "result": "improved"}, {"measurement": "rate of mitochondrial ATP synthesis", "setting": "[2]", "result": "improved"}, {"measurement": "attenuation of the decrease of TAZ1 mRNA", "setting": "TAZ1 mRNA", "result": "1-1.23 fold"}, {"measurement": "levels of 18:2 cardiolipin", "setting": "[3]", "result": "normalize"}]}
{"substance": "cardiolipin", "values": [{"measurement": "pK2", "setting": "[4]; ionization of both phosphates", "result": "> 7.5"}, {"measurement": "pK1", "setting": "[4]; ionization of one phosphate", "result": 3}]}
